In patent US10934300B2, “Atropisomerism for enhanced kinase inhibitor selectivity” (San Diego State University Foundation, priority 2017, dated 2021):
Several values for one entry are separate records, joined by “and”; a condition that tells them apart may be missing. Equal values may be shown once. Read-outs that look alike come from different tables or passages of the source.

Key:
Src kinase = Src kinase (Homo sapiens, UniProt P12931); experiment: Z'-LYTE kinase inhibition, Src; settings: for IC50: Table 4; for IC50 of compound Kinase/IC50 of compound Yes: Src relative to Yes
Ret kinase = Ret kinase (Homo sapiens, UniProt P07949); experiment: Z'-LYTE kinase inhibition, Ret; settings: for IC50: Ret IC50 (nM), Table 4; for IC50 of compound Kinase/IC50 of compound Yes: Ret relative to Yes
[1] = Experimental measurement of the barriers to rotation (racemization followed by chiral HPLC); format: physicochemical; settings: for kobs: observed rate constant of racemization in ethanol at the heating temperature (not given), in s^-1
Experimental: Enantiomerically enriched atropisomeric pyrrolopyrimidine analogues were isolated via chiral HPLC (Daicel Chiralpak IA PN:80335, 3 mL/min, 80:20 or 50:50 hexanes:ethanol, 25° C.) and evaporated in vacuo. The enantiomerically enriched analogues were then dissolved in ethanol and placed in a sealed 2-dram vial and heated under constant temperature on an aluminum block. At each time point, an aliquot of the mixture was removed and quenched in an HPLC vial containing ice cold 80:20 hexanes:ethanol. Each sample was then injected into the chiral HPLC system (Daicel Chiralpak IA PN:80325, 1 mL/min, 80:20 or 50:50 hexanes:ethanol, 25° C.) and enantiomeric excess (ee) measured. The timepoint and enantiomeric excess (ee) data was then plotted in order to determine an observed rate constant, kobs, at the corresponding temperature. The barrier to rotation was then calculated using the relationship of kracemization=2*kenantiomenzation and then substituted into the Gibbs Free Energy Equation:
[formula] where h=Planck Constant, kb=Boltzmann Constant, T=Temp. (K), R=Gas Constant.

Abl = Abl (Homo sapiens, UniProt P00519); experiment: Z'-LYTE kinase inhibition, Abl; settings: for IC50 of compound Kinase/IC50 of compound Yes: Abl relative to Yes
EGFR = EGFR (Homo sapiens, UniProt P00533); experiment: Z'-LYTE kinase inhibition, EGFR; settings: EGFR relative to Yes
Yes = Yes (Homo sapiens, UniProt P07947); experiment: Z'-LYTE kinase inhibition, Yes; settings: for IC50 of compound Kinase/IC50 of compound Yes: Yes relative to Yes
[2] = test system: panel of tyrosine kinases; experiment: Kinase inhibitor profiling across a panel of tyrosine kinases, selectivity score; format: biochemical
Experimental: To analyze each analog's selectivity across the panel, selectivity scores were used (Davis et al., Nat. Biotechnol. 2011, 29, 1046-51), which are simply the number of kinases inhibited above a certain threshold divided by the number of kinases evaluated. […] For example at 1000 nM 2e-(R) yielded an S(40%) of 0.11 while 2e-(S) gave an S(40%) of 0.16. […] Differences in selectivity between 2e-(R) and 2e-(S) at 5000 nM (4.5 times the IC50 of 2e-(S) toward Src) and for 5 at 1000 nM (6.25 times the IC50 of 5 toward Src) can be viewed graphically across tyrosine kinases (FIG. 3). Importantly, similar trends were also observed across each of the atropisomeric series tested.
All samples were sent out to Life Technologies to obtain kinase inhibition data. A brief description of the assays and analyses are included below.
Assay Theory (SelectScreen® Kinase Profiling Services (Life Technologies, Madison, Wis. USA). The Z′-LYTE® biochemical assay employs a fluorescence-based, coupled-enzyme format and is based on the differential sensitivity of phosphorylated and non-phosphorylated peptides to proteolytic cleavage. The peptide substrate is labeled with two fluorophores—one at each end—that make up a FRET pair.
In the primary reaction, the kinase transfers the gamma-phosphate of ATP to a single tyrosine, serine or threonine residue in a synthetic FRET-peptide. In the secondary reaction, a site-specific protease recognizes and cleaves non-phosphorylated FRET-peptides. Phosphorylation of FRET-peptides suppresses cleavage by the Development Reagent. Cleavage disrupts FRET between the donor (i.e., coumarin) and acceptor (i.e., fluorescein) fluorophores on the FRET-peptide, whereas uncleaved, phosphorylated FRET-peptides maintain FRET. A ratiometric method, which calculates the ratio (the Emission Ratio) of donor emission to acceptor emission after excitation of the donor fluorophore at 400 nm, is used to quantitate reaction progress, as shown in the equation below: […]
A significant benefit of this ratiometric method for quantitating reaction progress is the elimination of well-to-well variations in FRET-peptide concentration and signal intensities. […] Both cleaved and uncleaved FRET-peptides contribute to the fluorescence signals and therefore to the Emission Ratio. The extent of phosphorylation of the FRET-peptide can be calculated from the Emission Ratio. The Emission Ratio will remain low 1f the FRET-peptide is phosphorylated (i.e., no kinase inhibition) and will be high if the FRET-peptide is non-phosphorylated (i.e., kinase inhibition).
Both cleaved and uncleaved FRET-peptides contribute to the fluorescence signals and therefore to the Emission Ratio. The extent of phosphorylation of the FRET-peptide can be calculated from the Emission Ratio. The Emission Ratio will remain low if the FRET-peptide is phosphorylated (i.e., no kinase inhibition) and will be high if the FRET-peptide is non-phosphorylated (i.e., kinase inhibition).

Sequence of Src kinase (P12931 whole entry): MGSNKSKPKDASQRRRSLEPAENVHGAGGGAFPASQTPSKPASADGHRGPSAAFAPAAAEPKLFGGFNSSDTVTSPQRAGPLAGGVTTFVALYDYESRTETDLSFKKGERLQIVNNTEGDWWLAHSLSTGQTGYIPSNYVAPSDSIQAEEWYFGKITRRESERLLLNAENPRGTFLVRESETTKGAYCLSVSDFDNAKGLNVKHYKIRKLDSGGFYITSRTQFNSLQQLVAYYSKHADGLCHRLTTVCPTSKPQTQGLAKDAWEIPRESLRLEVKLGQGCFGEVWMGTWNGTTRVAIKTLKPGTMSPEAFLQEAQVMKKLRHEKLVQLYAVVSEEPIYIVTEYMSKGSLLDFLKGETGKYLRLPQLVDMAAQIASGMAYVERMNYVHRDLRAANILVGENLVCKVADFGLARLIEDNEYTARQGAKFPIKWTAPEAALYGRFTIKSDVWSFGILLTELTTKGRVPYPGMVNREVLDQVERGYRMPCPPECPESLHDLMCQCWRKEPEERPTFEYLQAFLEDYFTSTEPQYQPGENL
Sequence of Ret kinase (P07949 29-1114): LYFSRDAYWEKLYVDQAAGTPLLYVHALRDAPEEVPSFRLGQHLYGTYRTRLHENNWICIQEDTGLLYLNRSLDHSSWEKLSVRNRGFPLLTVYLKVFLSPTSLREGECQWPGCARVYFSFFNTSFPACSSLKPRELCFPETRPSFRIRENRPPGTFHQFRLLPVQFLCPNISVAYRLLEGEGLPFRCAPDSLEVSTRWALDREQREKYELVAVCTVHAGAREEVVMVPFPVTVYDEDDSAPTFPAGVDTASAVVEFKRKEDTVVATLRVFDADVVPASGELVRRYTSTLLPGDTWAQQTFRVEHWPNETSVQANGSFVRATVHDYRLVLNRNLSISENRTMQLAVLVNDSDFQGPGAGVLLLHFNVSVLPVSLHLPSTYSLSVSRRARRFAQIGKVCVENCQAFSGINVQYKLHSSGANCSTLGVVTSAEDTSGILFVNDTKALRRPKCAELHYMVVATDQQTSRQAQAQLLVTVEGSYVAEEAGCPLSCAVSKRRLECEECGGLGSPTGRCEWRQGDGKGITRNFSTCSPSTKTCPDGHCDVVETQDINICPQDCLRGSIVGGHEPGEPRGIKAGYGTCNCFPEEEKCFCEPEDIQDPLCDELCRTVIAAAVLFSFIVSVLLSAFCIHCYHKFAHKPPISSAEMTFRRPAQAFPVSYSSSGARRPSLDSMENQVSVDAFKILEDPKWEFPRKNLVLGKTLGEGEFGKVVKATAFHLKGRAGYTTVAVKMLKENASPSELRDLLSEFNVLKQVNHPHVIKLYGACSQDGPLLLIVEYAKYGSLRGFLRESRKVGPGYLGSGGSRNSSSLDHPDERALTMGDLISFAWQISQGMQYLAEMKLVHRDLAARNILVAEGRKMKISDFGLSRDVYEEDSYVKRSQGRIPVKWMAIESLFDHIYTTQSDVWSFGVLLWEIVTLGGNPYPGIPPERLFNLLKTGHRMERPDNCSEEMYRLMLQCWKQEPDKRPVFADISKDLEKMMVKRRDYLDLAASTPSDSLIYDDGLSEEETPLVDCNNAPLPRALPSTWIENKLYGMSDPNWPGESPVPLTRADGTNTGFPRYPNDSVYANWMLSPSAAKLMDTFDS
Sequence of EGFR (P00533 25-1210): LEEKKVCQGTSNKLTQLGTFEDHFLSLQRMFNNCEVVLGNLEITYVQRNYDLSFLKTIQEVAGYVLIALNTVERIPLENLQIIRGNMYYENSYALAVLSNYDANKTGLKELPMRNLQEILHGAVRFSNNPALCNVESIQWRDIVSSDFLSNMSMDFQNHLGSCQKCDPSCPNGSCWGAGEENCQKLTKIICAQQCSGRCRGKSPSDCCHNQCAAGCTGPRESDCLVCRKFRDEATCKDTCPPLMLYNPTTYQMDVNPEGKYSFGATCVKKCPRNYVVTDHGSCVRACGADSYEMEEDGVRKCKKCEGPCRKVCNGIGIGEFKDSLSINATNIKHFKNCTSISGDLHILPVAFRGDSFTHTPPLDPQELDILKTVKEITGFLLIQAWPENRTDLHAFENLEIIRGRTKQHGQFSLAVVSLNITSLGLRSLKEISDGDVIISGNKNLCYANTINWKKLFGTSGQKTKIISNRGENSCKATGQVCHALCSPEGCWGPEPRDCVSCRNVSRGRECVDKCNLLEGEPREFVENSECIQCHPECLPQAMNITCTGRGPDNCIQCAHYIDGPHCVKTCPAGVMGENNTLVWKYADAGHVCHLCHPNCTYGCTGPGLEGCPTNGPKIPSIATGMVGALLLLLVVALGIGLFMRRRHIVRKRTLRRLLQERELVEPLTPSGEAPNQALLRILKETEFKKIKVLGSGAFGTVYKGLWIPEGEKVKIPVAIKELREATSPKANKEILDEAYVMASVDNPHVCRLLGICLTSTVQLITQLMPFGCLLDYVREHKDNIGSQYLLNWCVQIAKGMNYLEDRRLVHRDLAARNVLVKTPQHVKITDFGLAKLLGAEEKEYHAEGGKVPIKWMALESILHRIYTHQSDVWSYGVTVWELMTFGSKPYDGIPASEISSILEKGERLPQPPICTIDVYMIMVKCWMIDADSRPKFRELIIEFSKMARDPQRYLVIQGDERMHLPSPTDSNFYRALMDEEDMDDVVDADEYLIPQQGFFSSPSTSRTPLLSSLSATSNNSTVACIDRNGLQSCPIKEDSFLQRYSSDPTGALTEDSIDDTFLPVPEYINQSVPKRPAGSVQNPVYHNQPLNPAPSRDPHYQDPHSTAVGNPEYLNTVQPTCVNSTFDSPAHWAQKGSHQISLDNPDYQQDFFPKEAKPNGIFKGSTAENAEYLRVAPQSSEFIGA
Sequence of Abl (P00519 whole entry): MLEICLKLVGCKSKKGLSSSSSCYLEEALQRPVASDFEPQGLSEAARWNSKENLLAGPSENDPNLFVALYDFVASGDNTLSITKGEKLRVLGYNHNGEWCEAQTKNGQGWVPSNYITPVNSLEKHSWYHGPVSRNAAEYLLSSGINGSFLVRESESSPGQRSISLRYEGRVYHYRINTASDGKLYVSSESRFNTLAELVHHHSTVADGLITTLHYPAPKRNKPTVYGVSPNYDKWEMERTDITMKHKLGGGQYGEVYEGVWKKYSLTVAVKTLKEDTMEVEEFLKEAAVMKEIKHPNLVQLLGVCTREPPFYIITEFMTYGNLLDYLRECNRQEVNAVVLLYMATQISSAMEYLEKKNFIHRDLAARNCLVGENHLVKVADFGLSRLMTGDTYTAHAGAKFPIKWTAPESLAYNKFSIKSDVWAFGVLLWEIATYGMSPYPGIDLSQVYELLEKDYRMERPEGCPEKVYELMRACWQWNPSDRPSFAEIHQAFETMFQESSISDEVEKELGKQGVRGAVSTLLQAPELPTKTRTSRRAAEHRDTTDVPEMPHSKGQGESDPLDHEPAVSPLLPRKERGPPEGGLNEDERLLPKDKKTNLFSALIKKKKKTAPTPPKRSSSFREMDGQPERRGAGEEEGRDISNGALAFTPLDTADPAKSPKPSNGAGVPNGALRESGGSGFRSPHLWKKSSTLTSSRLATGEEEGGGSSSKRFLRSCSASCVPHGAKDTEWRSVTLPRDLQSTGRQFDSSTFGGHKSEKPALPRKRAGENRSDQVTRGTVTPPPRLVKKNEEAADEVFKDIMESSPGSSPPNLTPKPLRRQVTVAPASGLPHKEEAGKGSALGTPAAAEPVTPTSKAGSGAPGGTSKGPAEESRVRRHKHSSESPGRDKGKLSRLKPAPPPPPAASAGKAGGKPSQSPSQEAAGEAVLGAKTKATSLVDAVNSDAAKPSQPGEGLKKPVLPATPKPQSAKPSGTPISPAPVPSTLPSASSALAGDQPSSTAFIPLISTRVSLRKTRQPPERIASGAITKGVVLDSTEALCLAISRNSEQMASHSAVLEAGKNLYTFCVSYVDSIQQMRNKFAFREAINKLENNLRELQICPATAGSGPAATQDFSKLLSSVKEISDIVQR
Sequence of Yes (P07947 whole entry): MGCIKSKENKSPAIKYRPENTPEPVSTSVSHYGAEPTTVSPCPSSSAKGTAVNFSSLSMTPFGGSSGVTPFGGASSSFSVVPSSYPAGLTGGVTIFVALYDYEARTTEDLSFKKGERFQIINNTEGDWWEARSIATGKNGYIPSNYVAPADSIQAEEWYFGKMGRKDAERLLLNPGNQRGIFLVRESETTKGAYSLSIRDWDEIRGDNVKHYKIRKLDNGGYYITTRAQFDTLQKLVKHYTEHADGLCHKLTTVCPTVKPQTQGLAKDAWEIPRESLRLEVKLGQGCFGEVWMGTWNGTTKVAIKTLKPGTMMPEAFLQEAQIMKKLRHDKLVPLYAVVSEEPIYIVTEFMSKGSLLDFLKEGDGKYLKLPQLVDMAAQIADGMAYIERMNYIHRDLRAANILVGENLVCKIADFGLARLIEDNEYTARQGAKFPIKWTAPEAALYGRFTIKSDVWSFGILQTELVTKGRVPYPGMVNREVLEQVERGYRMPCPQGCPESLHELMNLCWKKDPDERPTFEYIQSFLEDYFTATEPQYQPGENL

Row | IC50 (Ret kinase) | IC50 (Src kinase; Src IC50 (nM)) | Structure (SMILES) | also measured
1 | 918 nM | 4750 nM | COc1ccc(-c2c(C)n(C(C)(C)C)c3ncnc(N)c23)c(C)c1 (atropisomer, axis not shown; (Sa)) [(Sa)-7] | –
2 | 8810 nM | > 10000 nM | Cc1c(-c2cccc3ccccc23)c2c(N)ncnc2n1C(C)C (single isomer, unassigned) [(Sa)-9] | –
3 | 9070 nM | > 10000 nM | COc1ccc(-c2c(CN)n(C(C)(C)C)c3ncnc(N)c23)c(C)c1 (single isomer, unassigned) [(Sa)-8] | –
4 | 9560 nM | > 10000 nM | Cc1c(-c2cccc3ccccc23)c2c(N)ncnc2n1C(C)(C)C (single isomer, unassigned) [(Sa)-10] | –
5 | 3000 nM | > 10000 nM | COc1ccc(-c2c(Cl)n(C(C)(C)C)c3ncnc(N)c23)c(C)c1 (atropisomer, axis not shown; (Sa)) [(Sa)-2] | –
6 | 17 nM | 316 nM | Cc1c(-c2cncc3ccccc23)c2c(N)ncnc2n1C(C)(C)C (single isomer, unassigned) [(Sa)-12] | –
7 | 2270 nM | 406 nM | COc1ccc(Cl)c(-c2c(C)n(C(C)C)c3ncnc(N)c23)c1 (single isomer, unassigned) [(Sa)-4] | –
8 | 8000 nM | – | COc1ccc(Cl)c(-c2c(Br)n(C(C)(C)C)c3ncnc(N)c23)c1 (single isomer, unassigned) [(Sa)-6] | –
9 | 4810 nM | 918 nM | COc1cc(-c2c(Cl)n(C(C)(C)C)c3ncnc(N)c23)c(Cl)cc1C (single isomer, unassigned) [(Sa)-3] | –
10 | 2500 nM | 4100 nM | COc1ccc(C)c(-c2c(C)n(C(C)(C)C)c3ncnc(N)c23)c1 (single isomer, unassigned) [(Sa)-5] | –
11 | 2860 nM | 4560 nM | Cc1ccc(-c2c(C)n(C(C)C)c3ncnc(N)c23)c2ccccc12 (atropisomer, axis not shown; (Sa)) [(Sa)-11] | –

More lines, now with the values behind:

Row | Structure (SMILES) | IC50 (Ret kinase) | IC50 (Src kinase; Src IC50 (nM)) | also measured
12 | COc1ccc(-c2c(Cl)n(C(C)(C)C)c3ncnc(N)c23)c(C)c1 (atropisomer, axis not shown; (Ra)) [(Ra)-2] | 1870 nM | – | IC50 (Src kinase; read-out: Src IC50): > 10000 nM
13 | COc1ccc(Cl)c(-c2c(Cl)n(C3CCCC3)c3ncnc(N)c23)c1 [Compound 1e, 6-chloro-5-(2-chloro-5-methoxyphenyl)-7-cyclopentyl-7H-pyrrolo[2,3-d]pyrimidin-4-amine] | – | – | Barrier to Rotation [1]: 27.2 kcal/mol; kobs [1]: 1.24E−04
14 | Cc1c(-c2cccc3ccccc23)c2c(N)ncnc2n1C(C)(C)C (atropisomer, axis not shown; (Ra)) [(Ra)-10] | 282 nM | 5570 nM | –
15 | COc1cc(-c2c(Cl)n(C(C)(C)C)c3ncnc(N)c23)c(Cl)cc1C (single isomer, unassigned) [(Ra)-3] | 7070 nM | > 10000 nM | –
16 | COc1ccc(C)c(-c2c(Cl)n(C(C)(C)C)c3ncnc(N)c23)c1 (atropisomer, axis not shown; (Sa)) [(Sa)-1] | 2240 nM | 4090 nM | –
17 | COc1ccc(C)c(-c2c(C)n(C(C)(C)C)c3ncnc(N)c23)c1 (single isomer, unassigned) [(Ra)-5] | 731 nM | 6370 nM | –
18 | COc1ccc(Cl)c(-c2c(Cl)n(C(C)(C)C)c3ncnc(N)c23)c1 (single isomer, unassigned) [2e-(R), 7-(tert-butyl)-6-chloro-5-(2-chloro-5-methoxyphenyl)-7H-pyrrolo[2,3-d]pyrimidin-4-amine] | – | – | IC50 (Abl): ≥ 10 µM; IC50 of compound Kinase/IC50 of compound Yes (Abl): 10.0; IC50 of compound Kinase/IC50 of compound Yes (EGFR): >10.0; IC50 of compound Kinase/IC50 of compound Yes (Src kinase): 6.22; IC50 of compound Kinase/IC50 of compound Yes (Yes): 1; S(40%): number of kinases inhibited greater than 40% divided by number of kinases tested (including Src) ([2]; 1000 nM): 0.11; S(40%): number of kinases inhibited greater than 40% divided by number of kinases tested (including Src) ([2]; 5000 nM): 0.44; Inhibited % (n/18) of tyrosine kinases ([2]; share of the 18 tyrosine kinases inhibited, concentration not printed in Table 3): (R): Inhibited 11% (2/18); IC50 of compound Kinase/IC50 of compound Yes (Ret kinase): 2.07; augmentation/increase of 5's inherent selectivity (Ret kinase; Ret versus Abl and Src): 4 fold
19 | COc1ccc(Br)c(-c2c(Cl)n(C3CCCC3)c3ncnc(N)c23)c1 [Compound 1f, 5-(2-bromo-5-methoxyphenyl)-6-chloro-7-cyclopentyl-7H-pyrrolo[2,3-d]pyrimidin-4-amine] | – | – | Barrier to Rotation [1]: 29.0 kcal/mol; kobs [1]: 1.01E−05
20 | Cc1c(-c2cccc3c2CCCC3)c2c(N)ncnc2n1C(C)(C)C (atropisomer, axis not shown; (Ra)) [(Ra)-13] | > 10000 nM | > 10000 nM | –
21 | COc1cccc(-c2cn(C(C)(C)C)c3ncnc(N)c23)c1 [Compound 5, reference compound] | – | – | IC50 of compound Kinase/IC50 of compound Yes (Abl): 2.65; IC50 of compound Kinase/IC50 of compound Yes (EGFR): 7 and 6.96; IC50 of compound Kinase/IC50 of compound Yes (Src kinase): 1.64; relative selectivities favoring Yes (IC50 kinase/IC50 YES) over Ret, Src, and Abl (Yes): 1.4-2.65 fold; IC50 of compound Kinase/IC50 of compound Yes (Yes): 1; S(40%): number of kinases inhibited greater than 40% divided by number of kinases tested (including Src) ([2]; 200 nM): 0.44; activity for the tyrosine kinase panel tested ([2]; 200 nM and 1000 nM): near pan activity; S(40%): number of kinases inhibited greater than 40% divided by number of kinases tested (including Src) ([2]; 1000 nM): 0.72; IC50 of compound Kinase/IC50 of compound Yes (Ret kinase): 1.4
22 | COc1ccc(Cl)c(-c2c(Br)n(C(C)(C)C)c3ncnc(N)c23)c1 (single isomer, unassigned) [(Ra)-6] | 1500 nM | – | –
23 | COc1ccc(-c2c(C)n(C(C)(C)C)c3ncnc(N)c23)c(C)c1 (atropisomer, axis not shown; (Ra)) [(Ra)-7] | 450 nM | 3320 nM | –
24 | Cc1c(-c2cncc3ccccc23)c2c(N)ncnc2n1C(C)(C)C (single isomer, unassigned) [(Ra)-12] | 282 nM | 7450 nM | –
25 | COc1ccc(Br)c(-c2c(Cl)n(C(C)(C)C)c3ncnc(N)c23)c1 [Compound 2f, 5-(2-bromo-5-methoxyphenyl)-7-(tert-butyl)-6-chloro-7H-pyrrolo[2,3-d]pyrimidin-4-amine] | – | – | Barrier to Rotation [1]: 30.4 kcal/mol; kobs [1]: 2.68E−05
26 | COc1ccc(-c2c(CN)n(C(C)(C)C)c3ncnc(N)c23)c(C)c1 (single isomer, unassigned) [(Ra)-8] | 773 nM | 5290 nM | –
27 | COc1ccc(Cl)c(-c2c(C)n(C(C)C)c3ncnc(N)c23)c1 (single isomer, unassigned) [(Ra)-4] | 699 nM | 1330 nM | –
28 | Cc1c(-c2cccc3ccccc23)c2c(N)ncnc2n1C(C)C (single isomer, unassigned) [(Ra)-9] | 34 nM | 1370 nM | –
29 | COc1ccc(C)c(-c2c(Cl)n(C(C)(C)C)c3ncnc(N)c23)c1 (atropisomer, axis not shown; (Ra)) [(Ra)-1] | 1580 nM | 4550 nM | –
30 | COc1ccc(Cl)c(-c2c(Cl)n(C(C)(C)C)c3ncnc(N)c23)c1 [Compound 2e, 7-(tert-butyl)-6-chloro-5-(2-chloro-5-methoxyphenyl)-7H-pyrrolo[2,3-d]pyrimidin-4-amine] | – | – | Barrier to Rotation [1]: 28.6 kcal/mol; kobs [1]: 3.27E−05
